# Results reported in patent EP2975030B1, “DIHYDROPYRIDAZINE-3,5-DIONE DERIVATIVE” (Chugai Seiyaku Kabushiki Kaisha, priority 2013, dated 2014).
# System: rat small-intestinal brush border membrane vesicles
# Test: Inhibitory effect on 33PO4 uptake into rat small-intestinal brush border membrane vesicles (rapid filtration method)
# Assay type: biochemical, Wistar female rat
# Details: 1 µM test compound; 33PO4 uptake into rat small-intestinal BBMVs, 60 seconds
# Experimental: The ^33PO4 transport activity of the small-intestinal BBMVs was determined by the rapid filtration method. […] Then, ice-cold buffer C (110 mM NaCl, 1 mM KH2PO4, and 10 mM HEPES (pH 7.5)) was added to each reaction mixture, which was immediately suction-filtered through a Millipore filter. The filter was washed with buffer C, and each sample was then dissolved in a liquid scintillator. The amount of ^33PO4 uptake into BBMVs was measured using a liquid scintillation counter. […]
row,SMILES,Rate of uptake inhibition (%) (1 µM)
1,C[C@]12CCCN1N(Cc1cccc(F)c1F)C(=O)C(C(=O)Nc1ccc(Cl)cc1-c1ccc(C(F)(F)F)nc1)=C2O [Example 86],83
2,CN(C)S(=O)(=O)c1ccc(-c2nc(C(F)(F)F)ccc2NC(=O)C2=C(O)[C@@]3(C)CCCN3N(Cc3cccc(F)c3F)C2=O)cc1 [Example 87],84
3,C[C@]12CCCN1N(Cc1cccc(F)c1F)C(=O)C(C(=O)Nc1ccc(C(F)(F)F)cc1)=C2O [Example 89],67
4,C[C@]12CCCN1N(Cc1cccc(F)c1F)C(=O)C(C(=O)Nc1ccc(C(F)(F)F)cc1-c1ccc(C(F)(F)F)nc1)=C2O [Example 90],91
5,C[C@]12CCCN1N(Cc1cccc(F)c1F)C(=O)C(C(=O)Nc1ccc(C(F)(F)F)cc1-c1cncc(C(F)(F)F)c1)=C2O [Example 91],87
6,COCCOc1cc(NC(=O)C2=C(O)[C@@]3(C)CCCN3N(Cc3cccc(F)c3F)C2=O)c(-c2cccc(OC)c2OC)cc1C(F)(F)F [Example 92],81
7,COc1cccc(-c2cc(C(F)(F)F)ccc2NC(=O)C2=C(O)[C@@]3(C)CCCN3N(Cc3cccc(F)c3F)C2=O)n1 [Example 93],56
8,"C[C@]12CCCN1N(Cc1cccc(F)c1F)C(=O)C(C(=O)Nc1ccc(C(F)(F)F)cc1-c1cnc(C#N)c([N+](=O)[O-])c1)=C2O [Example 99, (4aR)-N-[2-(6-Cyano-5-nitropyridin-3-yl)-4-(trifluoromethyl)phenyl]-1-[(2,3-difluorophenyl)methyl]-4-hydroxy-4a-methyl-2-oxo-6,7-dihydro-5H-pyrrolo[1,2-b]pyridazine-3-carboxamide]",82
9,C[C@]12CCCN1N(Cc1cccc(F)c1F)C(=O)C(C(=O)Nc1ccc(C(F)(F)F)cc1-c1cc(C#N)ncn1)=C2O [Example 100],69
10,Cc1cc(-c2cc(C(F)(F)F)ccc2NC(=O)C2=C(O)[C@@]3(C)CCCN3N(Cc3cccc(F)c3F)C2=O)cnc1C#N [Example 101],57
11,C[C@]12CCCN1N(Cc1ccc(OCCN3CCOCC3)c(F)c1F)C(=O)C(C(=O)Nc1ccc(Cl)cc1-c1ccc(C(F)(F)F)nc1)=C2O [Example 102],65
12,CSc1ccc(-c2cc(C(F)(F)F)ccc2NC(=O)C2=C(O)[C@@]3(C)CCCN3N(Cc3ccc(OCCN4CCOCC4)c(F)c3F)C2=O)cn1 [Example 103],78
13,CSc1ncc(-c2cc(C(F)(F)F)ccc2NC(=O)C2=C(O)[C@@]3(C)CCCN3N(Cc3ccc(OCCN4CCOCC4)c(F)c3F)C2=O)cn1 [Example 104],73
14,CSc1ccc(-c2nc(C(F)(F)F)ccc2NC(=O)C2=C(O)[C@@]3(C)CCCN3N(Cc3cccc(F)c3F)C2=O)cn1 [Example 105],72
15,C[C@]12CCCN1N(Cc1ccc(OCCN3CCOCC3)c(F)c1F)C(=O)C(C(=O)Nc1ccc(C(F)(F)F)nc1-c1cncc(C(F)(F)F)c1)=C2O [Example 106],79
16,C[C@@]12CCCN1N(Cc1ccc(OCCN3CCOCC3)c(F)c1F)C(=O)C(C(=O)Nc1ccc(Cl)cc1-c1cc(C(F)(F)F)ncn1)=C2O.Cl [Example 107],54

row,SMILES,Rate of uptake inhibition (%) (1 µM)
1,C[C@@]12CCCN1N(Cc1ccc(OCCN3CCOCC3)c(F)c1F)C(=O)C(C(=O)Nc1ccc(C(F)(F)F)cc1-c1cc(C(F)(F)F)ncn1)=C2O.Cl [Example 108],54
2,"Cc1ncc(-c2cc(C(F)(F)F)ccc2NC(=O)C2=C(O)[C@@]3(C)CCCN3N(Cc3cccc(F)c3F)C2=O)cc1C#N [Example 109, (4aR)-N-[2-(5-Cyano-6-methylpyridin-3-yl)-4-(trifluoromethyl)phenyl]-1-[(2,3-difluorophenyl)methyl]-4-hydroxy-4a-methyl-2-oxo-6,7-dihydro-5H-pyrrolo[1,2-b]pyridazine-3-carboxamide]",52
3,"C[C@]12CCCN1N(Cc1cccc(F)c1F)C(=O)C(C(=O)Nc1ccc(C(F)(F)F)cc1-c1cnc(N3CC4(COC4)C3)c(C#N)c1)=C2O [Example 111, (4aR)-N-[2-[5-Cyano-6-(2-oxa-6-azaspiro[3.3]heptan-6-yl)pyridin-3-yl]-4-(trifluoromethyl)phenyl]-1-[(2,3-difluorophenyl)methyl]-4-hydroxy-4a-methyl-2-oxo-6,7-dihydro-5H-pvrrolo[1,2-b]pyridazine-3-carboxamide]",56
4,COC(=O)CN(C)c1ncc(-c2cc(C(F)(F)F)ccc2NC(=O)C2=C(O)[C@@]3(C)CCCN3N(Cc3cccc(F)c3F)C2=O)cc1C#N [Example 112],43
5,CSc1cc(-c2cc(C(F)(F)F)ccc2NC(=O)C2=C(O)[C@@]3(C)CCCN3N(Cc3cccc(F)c3F)C2=O)cnc1C#N [Example 113],84
6,"COc1cc(-c2cc(C(F)(F)F)ccc2NC(=O)C2=C(O)[C@@]3(C)CCCN3N(Cc3cccc(F)c3F)C2=O)cnc1C#N [Example 114, (4aR)-N-[2-(6-Cyano-5-methoxypyridin-3-yl)-4-(trifluoromethyl)phenyl]-1-[(2,3-difluorophenyl)methyl]-4-hydroxy-4a-methyl-2-oxo-6,7-dihydro-5H-pyrrolo[1,2-b]pyridazine-3-carboxamide]",86
7,"CSc1ccc(-c2cc(C(F)(F)F)ccc2NC(=O)C2=C(O)[C@@]3(C)CCCN3N(Cc3ccc(CCCCCCC(=O)O)c(F)c3F)C2=O)cn1 [Example 115, 7-[4-[[(4aR)-4-Hydroxy-4a-methyl-3-[[2-(6-methylsulfanylpyridin-3-yl)-4-(trifluoromethyl)phenyl]carbamoyl]-2-oxo-6,7-dihydro-5H-pyrrolo[1,2-b]pyridazin-1-yl]methyl]-2,3-difluorophenyl]heptanoate]",85
8,"C[C@]12CCCN1N(Cc1ccc(CCCCCCC(=O)O)c(F)c1F)C(=O)C(C(=O)Nc1ccc(Cl)cc1-c1ccc(C(F)(F)F)nc1)=C2O [Example 116, 7-[4-[[(4aR)-3-[[4-Chloro-2-[6-(trifluoromethyl)pyridin-3-yl]phenyl]carbamoyl]-4-hydroxy-4a-methyl-2-oxo-6,7-dihydro-5H-pyrrolo[1,2-b]pyridazin-1-yl]methyl]-2,3-difluorophenyl]heptanoate]",72
9,"CSc1ccc(-c2cc(C(F)(F)F)ccc2NC(=O)C2=C(O)[C@@]3(C)CCCN3N(Cc3ccc(C#CCCCCC(=O)O)c(F)c3F)C2=O)cn1 [Example 117, 7-[4-[[(4aR)-4-Hydroxy-4a-methyl-3-[[2-(6-methylsulfanylpyridin-3-yl)-4-(trifluoromethyl)phenyl]carbamoyl]-2-oxo-6,7-dihydro-5H-pyrrolo[1,2-b]pyridazin-1-yl]methyl]-2,3-difluorophenyl]hept-6-ynoate]",78
10,"CSc1ncc(-c2cc(C(F)(F)F)ccc2NC(=O)C2=C(O)[C@@]3(C)CCCN3N(Cc3ccc(C#CCCCCC(=O)O)c(F)c3F)C2=O)cn1 [Example 118, 7-[4-[[(4aR)-4-Hydroxy-4a-methyl-3-[[2-(2-methylsulfanylpyrimidin-5-yl)-4-(trifluoromethyl)phenyl]carbamoyl)-2-oxo-6,7-dihydro-5H-pyrrolo[1,2-b]pyridazin-1-yl]methyl]-2,3-difluorophenyl]hept-6-ynoate]",81
11,"C[C@]12CCCN1N(Cc1ccc(C#CCCCCC(=O)O)c(F)c1F)C(=O)C(C(=O)Nc1ccc(C(F)(F)F)cc1-c1cncc(C(F)(F)F)c1)=C2O [Example 119, 7-[4-[[(4aR)4-Hydroxy-4a-methyl-2-oxo-3-[[4-(trifluoromethyl)-2-[5-(trifluoromethyl)pyridin-3-yl]phenyl]carbamoyl]-6,7-dihydro-5H-pyrrolo[1,2-b]pyridazin-1-yl]methyl)-2,3-difluorophenyl]hept-6-ynoate]",71
12,CSc1ccc(-c2cc(C(F)(F)F)ccc2NC(=O)C2=C(O)[C@@]3(C)CCCN3N(Cc3ccc(OCCCCOC[C@H](O)CO)c(F)c3F)C2=O)cn1 [Example 120],66
13,"C[C@]12CCCN1N(Cc1ccc(OCCCCOC[C@H](O)CO)c(F)c1F)C(=O)C(C(=O)Nc1ccc(Cl)cc1-c1ccc(C(F)(F)F)nc1)=C2O [Example 121, (4aR)-N-[4-Chloro-2-[6-(trifluoromethyl)pyridin-3-yl]phenyl]-1-[[4-[4-[(2R)-2,3-dihydroxypropoxy]butoxy]-2,3-difluorophenyl]methy]-4-hydroxy-4a-methyl-2-oxo-6,7-dihydro-5H-pyrrolo[1,2-b]pyridazine-3-carboxamide]",72
14,"C[C@]12CCCN1N(Cc1cccc(F)c1F)C(=O)C(C(=O)Nc1ccc(Br)cc1-c1ccc(Cl)nc1)=C2O [Example 122, (4aR)-N-[4-Bromo-2-(6-chloropyridin-3-yl)phenyl]-1-[(2,3-difluorophenyl)methyl]-4-hydroxy-4a-methyl-2-oxo-6,7-dihydro-5H-pyrrolo[1,2-b]pyridazine-3-carboxamide]",82
15,"COc1cccc(-c2cc(C(F)(F)F)ccc2NC(=O)C2=C(O)[C@@]3(C)CCCN3N(Cc3ccc(C#CCOCCCCO)c(F)c3F)C2=O)c1OC [Example 123, (4aR)-1-[[2,3-Difluoro-4-[3-(4-hydroxybutoxy)prop-1-ynil]phenyl]methyl]-N-[2-(2.3-dimethoxyphenyl)-4-(trifluoromethyl)phenyl]-4-hydroxy-4a-methyl-2-oxo-6,7-dihydro-5H-pyrrolo[1,2-b]pyridazine-3-carboxamide]",87
16,C[C@]12CCCN1N(Cc1c(F)cc(C#CCCCCCOC[C@H](O)[C@@H](O)CO)cc1F)C(=O)C(C(=O)Nc1ccc(C(F)(F)F)cc1-c1ccc(C(F)(F)F)nc1)=C2O [Example 124],81
